The values below come from US10870647B2, “Imidazopyridine derivative, method for preparing same, and pharmaceutical composition containing same as active ingredient for preventing or treating cancer” (DAEGU-GYEONGBUK MEDICAL INNOVATION FOUNDATION, priority 2016, dated 2020).

Molecules are shown by their SMILES. Like-named read-outs stand apart in the source and are kept apart here.

Common to all, as to test: Kinase selectivity, scanMAX Kinase assay panel (DiscoverX), % control at 1 uM
What all share (type): binding

For experiment [1], the target named is T1, scanMAX Kinase assay panel (Homo sapiens, UniProt Q9UKI8).
T1 construct: purchased DiscoverX
T1 sequence (Q9UKI8 1-766): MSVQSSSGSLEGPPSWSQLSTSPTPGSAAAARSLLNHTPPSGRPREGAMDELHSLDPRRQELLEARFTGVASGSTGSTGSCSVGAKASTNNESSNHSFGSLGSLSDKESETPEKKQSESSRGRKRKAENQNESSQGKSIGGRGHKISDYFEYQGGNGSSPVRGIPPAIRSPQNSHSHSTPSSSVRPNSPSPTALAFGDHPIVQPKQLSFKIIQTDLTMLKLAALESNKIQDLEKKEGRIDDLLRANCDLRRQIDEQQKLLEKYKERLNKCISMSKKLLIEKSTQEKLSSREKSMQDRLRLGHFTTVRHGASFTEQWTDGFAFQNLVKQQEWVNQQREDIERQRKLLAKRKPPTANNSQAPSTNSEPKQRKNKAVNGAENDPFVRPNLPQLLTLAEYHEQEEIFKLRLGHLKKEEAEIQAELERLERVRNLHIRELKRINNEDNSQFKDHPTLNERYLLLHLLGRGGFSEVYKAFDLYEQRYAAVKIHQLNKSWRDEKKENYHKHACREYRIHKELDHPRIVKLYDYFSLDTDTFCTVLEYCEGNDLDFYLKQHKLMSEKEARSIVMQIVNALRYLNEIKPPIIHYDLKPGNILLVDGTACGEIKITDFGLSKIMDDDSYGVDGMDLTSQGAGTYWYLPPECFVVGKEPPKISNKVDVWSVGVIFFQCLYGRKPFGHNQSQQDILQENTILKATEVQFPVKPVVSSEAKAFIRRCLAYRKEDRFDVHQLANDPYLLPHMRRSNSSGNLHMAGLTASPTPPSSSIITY
Conditions: TLK1; 1 uM; read-out: Percent Control (%). The essentials:
(§1)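 Each kinase was first exposed to the test compound at 1 uM in DMSO. Signal was then normalised to positive and negative controls to give % control. Finally, any enzyme showing <35% control was judged inhibited.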

The target in experiment [2] is T2, scanMAX Kinase assay panel (Homo sapiens, UniProt P52564).
T2 construct: purchased DiscoverX
T2 sequence (P52564 1-334): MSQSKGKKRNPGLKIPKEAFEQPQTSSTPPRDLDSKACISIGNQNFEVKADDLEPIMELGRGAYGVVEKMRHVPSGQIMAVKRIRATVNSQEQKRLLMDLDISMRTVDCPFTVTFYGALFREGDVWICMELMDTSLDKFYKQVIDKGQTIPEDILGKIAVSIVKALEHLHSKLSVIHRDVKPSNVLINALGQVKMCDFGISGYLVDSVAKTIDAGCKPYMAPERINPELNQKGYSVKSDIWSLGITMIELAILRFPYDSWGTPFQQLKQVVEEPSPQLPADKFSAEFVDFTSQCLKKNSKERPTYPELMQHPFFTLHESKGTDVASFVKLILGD
Conditions: MEK6; 1 uM; read-out: Percent Control (%). The essentials: as §1

Experiment [3] has as its target T3, scanMAX Kinase assay panel (Homo sapiens, UniProt P36888, D835V).
T3 construct: purchased DiscoverX
T3 sequence (P36888 27-993 D835V): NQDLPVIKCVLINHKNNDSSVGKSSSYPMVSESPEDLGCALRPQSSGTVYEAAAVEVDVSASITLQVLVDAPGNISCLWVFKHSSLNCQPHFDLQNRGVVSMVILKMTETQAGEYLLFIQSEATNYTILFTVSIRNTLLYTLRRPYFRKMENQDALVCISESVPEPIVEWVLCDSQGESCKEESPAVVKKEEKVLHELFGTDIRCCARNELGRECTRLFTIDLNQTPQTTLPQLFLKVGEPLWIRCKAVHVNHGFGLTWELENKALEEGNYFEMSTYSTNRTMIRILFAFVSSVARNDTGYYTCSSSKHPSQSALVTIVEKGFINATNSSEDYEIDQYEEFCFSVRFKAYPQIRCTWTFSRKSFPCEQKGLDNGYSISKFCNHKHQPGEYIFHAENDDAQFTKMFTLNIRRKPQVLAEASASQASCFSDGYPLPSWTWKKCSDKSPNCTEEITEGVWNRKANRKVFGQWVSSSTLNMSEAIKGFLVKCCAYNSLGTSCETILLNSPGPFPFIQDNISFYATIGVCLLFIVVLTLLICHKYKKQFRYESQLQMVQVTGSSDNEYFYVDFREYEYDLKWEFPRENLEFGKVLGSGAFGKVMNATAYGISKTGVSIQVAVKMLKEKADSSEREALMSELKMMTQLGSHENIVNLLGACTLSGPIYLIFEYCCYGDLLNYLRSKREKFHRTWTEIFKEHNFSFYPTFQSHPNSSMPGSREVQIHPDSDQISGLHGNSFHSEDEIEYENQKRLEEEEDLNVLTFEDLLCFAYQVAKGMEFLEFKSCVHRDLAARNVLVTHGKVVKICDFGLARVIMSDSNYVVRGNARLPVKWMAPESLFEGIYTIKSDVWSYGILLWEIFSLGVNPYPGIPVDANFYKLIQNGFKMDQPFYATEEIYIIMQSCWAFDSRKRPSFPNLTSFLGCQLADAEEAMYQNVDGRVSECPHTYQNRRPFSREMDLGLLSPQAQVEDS
Conditions: FLT3 (D835V); 1 uM; read-out: Percent Control (%). The gist of the method: as §1

Experiment [4] deals with T4, scanMAX Kinase assay panel (Homo sapiens, UniProt Q5VT25).
T4 construct: purchased DiscoverX
T4 sequence (Q5VT25 whole entry): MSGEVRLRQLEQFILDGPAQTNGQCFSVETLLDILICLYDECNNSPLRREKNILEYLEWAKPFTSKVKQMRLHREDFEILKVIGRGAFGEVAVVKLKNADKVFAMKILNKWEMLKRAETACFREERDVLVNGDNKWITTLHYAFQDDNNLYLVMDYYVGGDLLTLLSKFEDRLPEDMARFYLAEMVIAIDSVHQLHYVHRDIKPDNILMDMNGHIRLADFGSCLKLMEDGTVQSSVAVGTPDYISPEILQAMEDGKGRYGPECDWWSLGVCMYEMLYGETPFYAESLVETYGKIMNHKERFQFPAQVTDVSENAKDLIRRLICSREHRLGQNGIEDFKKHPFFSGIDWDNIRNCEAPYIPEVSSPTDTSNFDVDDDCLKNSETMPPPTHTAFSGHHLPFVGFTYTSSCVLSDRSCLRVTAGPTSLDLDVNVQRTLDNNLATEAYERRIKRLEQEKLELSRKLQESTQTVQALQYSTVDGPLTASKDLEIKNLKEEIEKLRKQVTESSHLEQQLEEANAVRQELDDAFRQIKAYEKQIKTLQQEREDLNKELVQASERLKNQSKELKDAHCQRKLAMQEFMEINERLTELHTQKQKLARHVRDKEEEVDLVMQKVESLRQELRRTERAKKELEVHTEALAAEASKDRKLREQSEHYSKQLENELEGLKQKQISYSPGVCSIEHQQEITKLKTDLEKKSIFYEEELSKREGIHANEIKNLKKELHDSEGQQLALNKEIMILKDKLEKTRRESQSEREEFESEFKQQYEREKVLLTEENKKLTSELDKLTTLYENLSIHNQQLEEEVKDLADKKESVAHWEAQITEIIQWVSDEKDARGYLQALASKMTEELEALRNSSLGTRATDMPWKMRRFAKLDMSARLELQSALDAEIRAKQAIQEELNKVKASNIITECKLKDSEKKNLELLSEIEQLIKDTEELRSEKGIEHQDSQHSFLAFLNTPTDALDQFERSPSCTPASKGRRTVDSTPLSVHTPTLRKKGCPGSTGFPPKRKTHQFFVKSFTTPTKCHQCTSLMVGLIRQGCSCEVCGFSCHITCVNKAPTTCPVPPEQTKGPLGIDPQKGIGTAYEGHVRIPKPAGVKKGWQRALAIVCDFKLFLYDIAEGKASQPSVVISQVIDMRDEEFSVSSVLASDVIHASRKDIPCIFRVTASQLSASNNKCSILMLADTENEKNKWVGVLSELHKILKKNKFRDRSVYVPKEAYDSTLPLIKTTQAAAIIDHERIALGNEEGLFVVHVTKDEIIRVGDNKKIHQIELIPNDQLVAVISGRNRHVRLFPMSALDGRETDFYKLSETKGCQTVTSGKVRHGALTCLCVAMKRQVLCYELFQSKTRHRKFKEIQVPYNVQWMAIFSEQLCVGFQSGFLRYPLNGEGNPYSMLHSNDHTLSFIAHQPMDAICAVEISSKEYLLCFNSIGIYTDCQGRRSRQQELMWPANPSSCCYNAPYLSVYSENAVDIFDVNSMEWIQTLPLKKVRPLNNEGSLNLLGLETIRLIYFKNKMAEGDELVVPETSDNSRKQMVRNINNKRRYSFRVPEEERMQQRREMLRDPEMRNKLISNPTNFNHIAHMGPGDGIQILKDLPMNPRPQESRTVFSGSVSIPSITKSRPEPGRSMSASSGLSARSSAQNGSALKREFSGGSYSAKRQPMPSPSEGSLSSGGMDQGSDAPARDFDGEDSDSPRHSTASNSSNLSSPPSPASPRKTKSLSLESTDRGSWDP
The note with it: MRCKA; 1 uM; read-out: Percent Control (%). The essentials: as §1

Experiment [5] addresses T5, scanMAX Kinase assay panel (Homo sapiens, UniProt Q9UK32).
T5 construct: purchased DiscoverX
The note with it: 1 uM, read-out: Percent Control (%). The gist of the method:
as §1

T5 sequence (Q9UK32 whole entry): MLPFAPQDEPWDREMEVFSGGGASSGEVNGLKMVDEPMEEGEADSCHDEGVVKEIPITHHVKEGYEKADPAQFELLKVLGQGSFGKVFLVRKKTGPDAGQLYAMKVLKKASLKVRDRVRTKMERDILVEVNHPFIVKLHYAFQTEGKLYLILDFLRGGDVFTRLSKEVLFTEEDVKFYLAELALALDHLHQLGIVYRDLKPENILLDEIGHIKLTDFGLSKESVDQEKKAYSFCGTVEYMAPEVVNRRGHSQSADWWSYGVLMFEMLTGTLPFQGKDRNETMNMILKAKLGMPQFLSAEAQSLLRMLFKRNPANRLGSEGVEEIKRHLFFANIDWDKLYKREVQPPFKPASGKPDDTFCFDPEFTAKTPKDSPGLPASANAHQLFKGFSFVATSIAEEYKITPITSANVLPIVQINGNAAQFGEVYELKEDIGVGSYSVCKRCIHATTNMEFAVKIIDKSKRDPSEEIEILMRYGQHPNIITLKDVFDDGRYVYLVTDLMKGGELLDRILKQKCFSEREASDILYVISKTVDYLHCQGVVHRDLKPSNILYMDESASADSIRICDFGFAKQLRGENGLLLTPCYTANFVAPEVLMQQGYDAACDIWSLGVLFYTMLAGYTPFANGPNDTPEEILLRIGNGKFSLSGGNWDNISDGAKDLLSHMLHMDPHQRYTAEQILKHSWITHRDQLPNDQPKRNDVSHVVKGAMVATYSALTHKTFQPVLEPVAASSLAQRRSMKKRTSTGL

On to `Cc1ccc(C(=O)Nc2ccc(CN3CCN(C)CC3)c(C(F)(F)F)c2)cc1C#Cc1cnc2c(Nc3cnn(C)c3)cccn12` [Example 1, 4-methyl-3-((8-((1-methyl-1H-pyrazol-4-yl)amino)imidazo[1,2-a]pyridin-3-yl)ethynyl)-N-(4-((4-methylpiperazin-1-yl)methyl)-3-(trifluoromethyl)phenyl)benzamide], for which the remaining binding at 1 µM in experiment [1] was determined as 93%; in experiment [2], 86%; in experiment [3], 0%; in experiment [4], 96%; in experiment [5] (RSK4 (Kin.Dom.1-N-terminal)), 81%; in experiment [5] (RSK4 (Kin.Dom.2-C-terminal)), 59%.

As for `Cc1cn(-c2cc(NC(=O)c3ccc(C)c(C#Cc4cnc5c(Nc6cnn(C)c6)cccn45)c3)cc(C(F)(F)F)c2)cn1` [Example 12, 4-methyl-N-(3-(4-methyl-1H-imidazol-1-yl)-5-(trifluoromethyl)phenyl)-3-((8-((1-methyl-1H-pyrazol-4-yl)amino)imidazo[1,2-a]pyridin-3-yl)ethynyl)benzamide], the remaining binding at 1 µM in experiment [1] was found to be 75%; in experiment [2], 89%; in experiment [3] it was 27%; in experiment [4], 91%; in experiment [5] (RSK4 (Kin.Dom.1-N-terminal)) it was 93%; in experiment [5] (RSK4 (Kin.Dom.2-C-terminal)), 68%.

Take `Cc1ccc(NC(=O)C2(C(=O)Nc3ccc(F)cc3)CC2)cc1C#Cc1cnc2c(Nc3cnn(C(C)C)c3)cccn12` [Example 78]: the remaining binding at 1 µM came out at 96% in experiment [1]; 100% in experiment [2]; 87% in experiment [3]; 100% in experiment [4]; 93% in experiment [5] (RSK4 (Kin.Dom.1-N-terminal)); 98% in experiment [5] (RSK4 (Kin.Dom.2-C-terminal)).
